Experiments:
[1] = biological target: glyceraldehyde-3-phosphate dehydrogenase (GAPDH) (Homo sapiens, UniProt P04406); settings: reported in J. Biol. Chem. 273:5821-5828; cited from earlier work
[2] = tested on: homozygous dy^W/dy^W mice deficient in laminin-α2 expression; assay: Body weight gain in mouse model for MDC1A (FIG. 2); format: in vivo; settings: vehicle maximally 11%
Experimental: Example 2 describes the therapeutically relevant effect of N-(dibenz(b,f)oxepin-10-ylmethyl)-N-methyl-N-prop-2-ynylammonium maleate (omigapil) on the body weight gain in a mouse model for MDC1A deficient in laminin-α2 expression. Starting at day fifteen, homozygous dy^W/dy^W mice were treated with omigapil. Their individual body weights were assessed daily and compared to homozygous dy^W/dy^W mice treated with vehicle only (control group). For this, omigapil was given to dy^W/dy^W-mice at doses of 0.1 or 1 mg/kg body weight, respectively. The treatment regime was as described in example 1.
Newborn dy^W/dy^W mice were genotyped and randomly assigned to the vehicle or the 0.1 and 1 mg/kg omigapil groups. The individual body weights were assessed daily and the mean body weight were calculated every week. The percentage of mice above an average body weight of twelve grams is shown grouped according to age (between 6 and 11 weeks) for each treatment group. In total 27, 34 and 25 animals were included into the vehicle, the 0.1 and the 1 mg/kg omigapil group, respectively.

[3] = tested on: homozygous dy^W/dy^W mice deficient in laminin-α2 expression; assay: Muscle fiber size distribution in Triceps muscle (FIG. 4); format: in vivo, mouse; settings: dy^W/dy^W mice at 6 weeks of age, 0.1 mg/kg; vehicle 8%; p-value<0.05
Experimental: The effect of N-(dibenz(b,f)oxepin-10-ylmethyl)-N-methyl-N-prop-2-ynylammonium maleate (omigapil) on muscle fiber size distribution was tested in a mouse model for MDC1A deficient in laminin-α2 expression. Muscle fiber diameters were analyzed in Triceps muscle of 6 weeks old dy^W/dy^W mice treated with 0.1 mg/kg body weight omigapil or with vehicle only. The treatment regime was as described in example 1.
It can be concluded from this increase in large diameter myofibers that omigapil improves muscle histology in an animal model for muscular dystrophy caused by laminin α2-deficiency.
Newborn dy^W/dy^W mice were genotyped and randomly assigned to the vehicle or omigapil group. The myofiber diameters were measured following methods known to the skilled artist (Briguet, A., Courdier-Fruh, I., Foster, M., Meier, T., Magyar, J. P. (2004)—“Histological parameters for the quantitative assessment of muscular dystrophy in the mdx-mouse”, Neuromuscul Disord 14(10): 675-82). For each muscle all muscle fibers of one cross section were included into the analysis. 7 animals were analyzed per treatment group. 8% of the myofibers in the Triceps muscle of the vehicle-treated dy^W/dy^W mice had muscle diameters above 50 micrometers at 6 weeks of age while 15% of myofibres in the omigapil-treated group fulfilled this criteria. Asterisk: p-value<0.05.

[4] = tested on: homozygous dy^W/dy^W mice deficient in laminin-α2 expression; assay: Skeletal muscle apoptosis (TUNEL) in Triceps muscle (FIG. 3); format: in vivo, mouse; settings: dy^W/dy^W mice at 6 weeks of age, 0.1 mg/kg
Experimental: The effect of N-(dibenz(b,f)oxepin-10-ylmethyl)-N-methyl-N-prop-2-ynylammonium maleate (omigapil) on skeletal muscle apoptosis was tested in a mouse model for MDC1A deficient in laminin-α2 expression. Starting at day fifteen, homozygous dy^W/dy^W mice were treated with omigapil. The number of apoptotic myonuclei were analyzed and compared to the number of apoptotic myonuclei determined in homozygous dy^W/dy^W mice treated with vehicle only and to the number of apoptotic myonuclei determined in untreated wild-type mice. For this, omigapil was given to dy^W/dy^W-mice at a dose of 0.1 mg/kg body weight according to the treatment regime described in example 1. […]
Newborn dy^W/dy^W mice were genotyped and randomly assigned to the vehicle or omigapil group. The apoptotic myonuclei in the Triceps foreleg muscle were determined by counting muscle fibers positively stained for Terminal dUTP nick end labeling (TUNEL). […] The relative number of apoptotic myofibres was calculated by dividing the number of TUNEL positive myonuclei by the total number of myofibres. 7 animals were analyzed per treatment group. 1.1% of the myofibers in the Triceps muscle of the vehicle-treated dy^W/dy^W mice had apoptotic myonuclei at 6 weeks of age while only 0.7% apoptotic myofibres were detected in the omigapil-treated group. […]

[5] = tested on: homozygous dy^W/dy^W mice deficient in laminin-α2 expression; assay: Voluntary exploratory locomotory activity in a new cage (FIG. 6); format: in vivo, mouse; settings: dy^W/dy^W mice at 6 weeks of age; for locomotory activity in the 10-minute test period: vehicle 236 seconds, p-value<0.05
Experimental: The therapeutically relevant effect of N-(dibenz(b,f)oxepin-10-ylmethyl)-N-methyl-N-prop-2-ynylammonium maleate (omigapil) on the voluntary locomotion was tested in a mouse model for MDC1A deficient in laminin-α2 expression. Starting at day fifteen, homozygous dy^W/dy^W mice were treated with omigapil at doses of 0.1 or 1 mg/kg body weight. Their individual exploratory locomotory activity was assessed at 6 weeks of age and compared to age-matched dy^W/dy^W mice treated with vehicle only. The treatment regime was as described in example 1.
It can be concluded that omigapil increases locomotory activity in an animal model for muscular dystrophy caused by laminin α2-deficiency.
Newborn dy^W/dy^W mice were genotyped and randomly assigned to the vehicle or the 0.1 and 1 mg/kg omigapil groups. The voluntary locomotory activity was measured within the first 10 minutes after having placed the animal in a new cage. […] The difference in activity is statistically significant for both omigapil treatments (asterisk: p-value<0.05). In total 13, 15 and 10 animals were included into the vehicle, the 0.1 and the 1 mg/kg omigapil group, respectively.

[6] = tested on: homozygous dy^W/dy^W mice deficient in laminin-α2 expression; assay: Skeletal deformation (kyphosis) by X-ray analysis and visual scoring (FIG. 5); format: in vivo, mouse; settings: dy^W/dy^W mice at 11 weeks of age, 1 mg/kg; example animal; vehicle 66°
Experimental: The beneficial and therapeutically relevant effect of N-(dibenz(b,f)oxepin-10-ylmethyl)-N-methyl-N-prop-2-ynylammonium maleate (omigapil) on the skeletal deformation (i.e. kyphosis) was tested in a mouse model for MDC1A deficient in laminin-α2 expression. For this, homozygous dy^W/dy^W mice were treated with omigapil (at a dose of 1 mg/kg body weight) and their kyphosis was scored at 11 weeks of age by visual inspection and X-ray analysis and compared to the extent of kyphosis seen in homozygous dy^W/dy^W mice treated with vehicle only and untreated wildtype mice. The treatment regime was as described in example 1.
Spinal deformation was documented by X-ray pictures of an age-matched wild-type mouse (A), a vehicle-treated (B) and an 1 mg/kg omigapil-treated dy^W/dy^W mouse (C). The kyphosis was quantified in living animals using a visual scoring system (1: barely detectable, 2: mild, 3: moderate, 4: severe) (D). 9 vehicle- and 7 omigapil-treated animals were analyzed.

[7] = tested on: homozygous dy^W/dy^W mice deficient in laminin-α2 expression; assay: Survival rate in mouse model for MDC1A (Kaplan-Meier, FIG. 1); format: in vivo; settings: 0.1 mg/kg once daily (i.p., then gavage from 4th week), 1 out of 13 animals, vehicle 6 out of 15 (=40%)
Experimental: The effect of N-(dibenz(b,f)oxepin-10-ylmethyl)-N-methyl-N-prop-2-ynylammonium maleate (omigapil) on the survival rate was tested in a mouse model for MDC1A deficient in laminin-α2 expression. Starting at day fifteen, homozygous dy^W/dy^W mice were treated with omigapil. Their survival rate was compared to homozygous dy^W/dy^W mice treated with vehicle only. For this, omigapil was dissolved in 0.5% w/v ethanol to a final concentration of 20 μg/ml. The treatment regime was as follows: omigapil (20 μg/ml in 0.5% ethanol) was applied to 3 week old dy^W/dy^W-mice by intraperitoneal (i.p.) injection once per day; from the 4th week of age onwards mice received the same concentration of omigapil once per day by gavage feeding instead of i.p. application. The final dose of omigapil given to dy^W/dy^W-mice at all times was 0.1 mg/kg body weight, once daily following the guidance as described elsewhere (Sagot Y. et al. (2000)—An orally active anti-apoptotic molecule (CGP 3466B) preserves mitochondria and enhances survival in an animal model of motoneuron disease. Br. J. Pharmacol. 131:721-728). Control mice received the equivalent amount of vehicle only. […]

Sequence of glyceraldehyde-3-phosphate dehydrogenase (GAPDH) (P04406 whole entry, species assumed): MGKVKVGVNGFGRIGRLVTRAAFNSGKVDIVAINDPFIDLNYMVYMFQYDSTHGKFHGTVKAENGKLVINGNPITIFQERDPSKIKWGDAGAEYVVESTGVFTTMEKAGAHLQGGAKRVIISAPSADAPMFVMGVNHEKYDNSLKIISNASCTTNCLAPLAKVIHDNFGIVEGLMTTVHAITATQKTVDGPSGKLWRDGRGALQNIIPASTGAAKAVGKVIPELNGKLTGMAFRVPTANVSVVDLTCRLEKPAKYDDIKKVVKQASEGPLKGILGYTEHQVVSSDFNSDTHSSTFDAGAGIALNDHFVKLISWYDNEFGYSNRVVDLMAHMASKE

| Compound | binding to GAPDH [1] | percentage of mice that reached a body weight above 12 grams within the first 11 weeks of age ([2]; 0.1 mg/kg omigapil) [%] | percentage of mice that reached a body weight above 12 grams within the first 11 weeks of age ([2]; 1 mg/kg omigapil) [%] | myofibres with muscle fiber diameters above 50 micrometers in the Triceps muscle [3] [%] | reduction in apoptotic myofibres compared to vehicle ([4]; Triceps muscle) [%] | apoptotic myofibres in the Triceps muscle (TUNEL) ([4]; vehicle 1.1%) [%] | increase in locomotory activity compared to vehicle group ([5]; 0.1 mg/kg) [%] | locomotory activity in the 10-minute test period ([5]; 0.1 mg/kg) [seconds] | increase in locomotory activity compared to vehicle group ([5]; 1 mg/kg) [%] | locomotory activity in the 10-minute test period ([5]; 1 mg/kg) [seconds] | angle spanned by the spine (kyphosis, X-ray) [6] [°] | animals died within the first 80 days of age [7] [%] |
| --- | --- | --- | --- | --- | --- | --- | --- | --- | --- | --- | --- | --- |
| C#CCN(C)CC1=Cc2ccccc2Oc2ccccc21 [compound of formula (I), N-(dibenz(b,f)oxepin-10-ylmethyl)-N-methyl-N-prop-2-ynylamine] | binds to glyceraldehyde-3-phosphate dehydrogenase (GAPDH) | – | – | – | – | – | – | – | – | – | – | – |
| N-(dibenz(b,f)oxepin-10-ylmethyl)-N-methyl-N-prop-2-ynylammonium maleate [omigapil] | – | 25 | 43 | 15 | 35 | 0.7 | 39 | 330 | 26 | 301 | 89 | 8 |

Reference: US7999002B2, “Use of N-(dibenz(b,f)oxepin-10-ylmethyl)-N-methyl-N-prop-2-ynylamine (omigapil) or a pharmaceutically acceptable addition salt thereof for the prophylaxis and/or treatment of muscular dystrophy” (Santhera Pharmaceuticals (Schweiz) AG, priority 2005, dated 2011)
